# From US11866409B2, “Apoptosis related protein in the tgf-beta signaling pathway (ARTS) mimetic compounds, compositions, methods and uses thereof in induction of differentiation and/or apoptosis of premalignant and malignant cells, thereby restoring their normal-like phenotype” (CARMEL-HAIFA UNIVERSITY ECONOMIC CORPORATION LTD., priority 2015, dated 2024)
# Legend:
# [1] = test system: Bcl-2; test: Western blot, A375 human melanoma cells; format: cell-based; details: 20 μM, 24 hrs
# Description: (§1) The cells were lysed in WCE (whole-cell extract) buffer [[…] Hepes, pH 7.7, 0.3M NaCl, 1.5 mM MgCl2, 0.2 mM EDTA, 0.1% Triton X-100, 100 μg/ml PMSF and protease inhibitor cocktail (Roche, 1:100 dilution)]. 100 μg of total cell protein, measured with the Bio-Rad Protein Assay kit, were separated by SDS-PAGE (12%) followed by transfer for 2 h on to a nitrocellulose membrane. The membrane was blocked with 5% (w/v) non-fat dried skimmed milk powder in PBS supplemented with 0.05% Tween20 (PBS-T) for 1 hour at room temperature (R.T). Membrane was then probed with primary antibody at 4° C. overnight. Next, the membrane was incubated with the appropriate HRP-conjugated secondary antibody, for 1 hour at R.T. and washed 15 min×3 with PBS-T. WesternBright ECL (Advansta) was added to the membrane for 2 min and analyzed using ImageQuant LAS-4000 analyzer (GE Healthcare Life Sciences) & “ImageQuant LAS-4000” software (GE Healthcare Life Sciences). Densitometry analysis was performed using ImageQuant total lab 7 (GE Healthcare Life Sciences), image analysis software.
# (§2) The candidate molecules were next subjected to functional assays, examining their ability to induce apoptosis. Therefore, the expression of several apoptotic markers was examined in A375 human melanoma cells exposed to 20 μM of each of the candidate compounds. […] No effect on cCaspase or c-PARP was shown.
# [2] = test system: cCaspase; test: Western blot, A375 human melanoma cells; format: cell-based; details: 20 μM, 24 hrs
# Description: as §1, §2
# [3] = test system: c-PARP; test: Western blot, A375 human melanoma cells; format: cell-based; details: 20 μM, 24 hrs
# Description: as §1, §2
# [4] = test system: Bcl-2; test: Proteasome-mediated degradation study, T47D breast cancer cells; format: cell-based
# Description: as §1
# (§3) T47D breast cancer cells: 1*10^6 T47D cells were seeded on a 10 cm plate in RPMI and were propagated to 80% confluence. Cells were treated for 1 hour with either DMSO (control) or 30 μM A4 together with 20 μM MG-132 (proteasome inhibitor) or without MG-132. […]
# [5] = biological target: T1, XIAP (Homo sapiens, UniProt P98170); test: Proteasome-mediated degradation study, HeLa cervical cancer cells; format: cell-based; parameters: endogenous in cells; host or cells: HeLa cervical cancer cells
# T1 sequence (P98170 whole entry): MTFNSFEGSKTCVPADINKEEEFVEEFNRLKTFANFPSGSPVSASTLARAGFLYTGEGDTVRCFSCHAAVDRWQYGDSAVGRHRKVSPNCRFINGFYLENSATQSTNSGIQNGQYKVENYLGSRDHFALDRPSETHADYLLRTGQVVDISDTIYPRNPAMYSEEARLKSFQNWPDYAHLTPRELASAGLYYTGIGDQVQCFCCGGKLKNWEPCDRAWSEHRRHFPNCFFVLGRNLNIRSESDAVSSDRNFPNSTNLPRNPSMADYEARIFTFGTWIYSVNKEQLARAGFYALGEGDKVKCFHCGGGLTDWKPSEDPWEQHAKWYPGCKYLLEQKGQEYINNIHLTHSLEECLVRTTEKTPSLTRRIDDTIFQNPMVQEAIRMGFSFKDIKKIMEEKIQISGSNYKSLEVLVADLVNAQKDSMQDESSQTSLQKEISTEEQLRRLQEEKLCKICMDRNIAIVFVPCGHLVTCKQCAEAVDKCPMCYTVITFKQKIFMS
# Description: as §1
# (§4) HeLa cervical cancer cells: 1.5*10^6 HeLa cells were seeded on a 10 cm plate in DMEM and were propagated to 80% confluence. Cells were treated for 2 hour with either DMSO (control) or 30 μM A4 together with 20 μM MG-132 (proteasome inhibitor) or without MG-132. […]
# [6] = biological target: T1, XIAP; test: Western blot, A375 human melanoma cells; format: cell-based; parameters: endogenous in cells; host or cells: A375 human melanoma cells; details: 20 μM, 24 hrs
# Description: as §1, §2
# [7] = test system: Bcl-2; test: Proteasome-mediated degradation study, HeLa cervical cancer cells; format: cell-based
# Description: as §1, §4
# [8] = test system: 293 cells stably expressing Bcl-2 cherry reporter; test: Combination with BH3 mimetic in Bcl-2 cherry reporter cells; format: cell-based; details: A4 combined with ABT199, 293 cells Bcl-2 cherry reporter
# Description: pcDNA-3.1 vector carrying Bcl2 with an mCherry fusion c′ terminus fluorescent tag and neomycin (G418) resistance sequences was transfected into HEK 293T cells using Turbofect (Fermentas). Cells were then treated with G418, and resistant fluorescent cells were further sorted and isolated by FACS-sorter. Mono-clones of the stably expressing Bcl2-mCherry and G418 resistance were propagated and used for the experiments.
# [9] = test system: M2 cells (MCF10AT1K, premalignant breast cells); test: Proliferation assay of M2 cells in 2D culture; format: cell-based, human; details: 24 and 48 hours
# Description: Human breast cancer cell lines MCF-10A (M1) was received from Prof. Israel Vlodavsky (Technion, Israel), MCF10AT1K (M2) and MCF10ACA1 h (M3) were received from Dr. Fred Miller (Barbara Ann Karmanos Cancer Institute). M1 and M2 cells were maintained in DMEM/F12 supplemented with 5% donor horse serum (DHS), 1% sodium pyrovate, 1% L-glutamine, 0.02 μg/ml epidermal growth factor (EGF; Peprotech), 0.01 mg/ml insulin (Sigma), 0.5 μg/ml hydrocortisone (Sigma), 0.1 μg/ml cholera toxin (Sigma) and 1% penicillin-streptomycin at 37° C., 5% CO2 incubator. M3 cells were maintained in DMEM/F12 supplemented with 5% DHS and 1% penicillin-streptomycin at 37° C. and incubated in 5% CO2 incubator.
# The CellTiter 96 AqueousOne Solution of cell proliferation assay kit (Promega) was added to the wells for 2 hours to measure cell proliferation according the manufacturer's instructions. The absorbance was recorded at 490 nm.
# [10] = biological target: recombinant GST-tagged XIAP (Homo sapiens, UniProt P98170); test: MicroScale Thermophoresis (MST) binding to whole XIAP; details: GST-tagged XIAP (FIG. 4D), read-out: calculated Kd
# recombinant GST-tagged XIAP, sequence (P98170 whole entry): as above
# Description: (§5) 340 nM of fl-labeled Bir3 was titrated with A4 compound in 1:1 dilutions beginning at 500 μM, in a 25 mM Tri-Sodium acetate buffer pH 5.6, 2% DMSO and 0.05% Tween 20. The measurements were performed on a NanoTemper Monolith instrument.
# (§6) To further characterize the A4 candidate, MicroScale Thermophoresis (MST) was used to evaluate the binding of the A4 compound to fluorescently labeled Bir3 (His-tagged) domain of XIAP, residues 252-350. […] Microscale thermophoresis (MST) is a technology for the interaction analysis of biomolecules. Microscale thermophoresis is the directed movement of particles in a microscopic temperature gradient. Any change of the hydration shell of biomolecules due to changes in their structure/conformation results in a relative change of the movement along the temperature gradient and is used to determine binding affinities. MST allows measurement of interactions directly in solution without the need of immobilization to a surface (immobilization-free technology).
# To further characterize the A4 candidate, the MSTtechnology described above was used to evaluate the binding of the A4 compound to recombinant GST-tagged XIAP, as presented in FIG. 4D.
# [11] = biological target: T1, XIAP; test: Proteasome-mediated degradation study, T47D breast cancer cells; format: cell-based; parameters: endogenous in cells; host or cells: T47D breast cancer cells
# Description: as §1, §3
# [12] = biological target: T2, fluorescently labeled Bir3 (His-tagged) domain of XIAP, residues 252-350 (Homo sapiens, UniProt P98170); test: MicroScale Thermophoresis (MST) binding to Bir3 domain of XIAP; details: 340 nM fl-labeled Bir3, pH 5.6, 2% DMSO, read-out: calculated Kd
# T2 construct: His-tagged Bir3 (XIAP 252-350) was expressed and purified; made in house
# T2 sequence (P98170 252-350): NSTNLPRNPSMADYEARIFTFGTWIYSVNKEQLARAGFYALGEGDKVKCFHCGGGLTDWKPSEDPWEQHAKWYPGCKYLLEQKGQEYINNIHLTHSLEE
# Description: His-tagged Bir3 (XIAP 252-350) was expressed and purified as previously described (Reingewertz et al, 2011). The purified Bir3 was labeled with the Monolith NT™ Protein Labeling Kit RED according to the supplied labeling protocol.
# as §5, §6
# [13] = test system: M2 organoids; test: M2 organoids in 3D BME culture, polarization and lumen formation; format: cell-based, human
# Description: Cells were harvested from their growth plates using 0.25% trypsin EDTA. Collected cells were cultured in Cultrex® growth factor reduced Basement Membrane Extract (BME: Trevigen, Inc) as follows: An 8 chamber glass slide system (Lab-TEK® II, Naperville, IL) was coated with 60 μl BME [Barkan D. et al., Cancer Research (2008)](protein concentration between 15 mg/ml; thickness˜1-2 mm). 5×10^3 cells per well were re-suspended in DMEM/F12 supplemented with 2.5% DHS and 2% BME and cultured on the coated slides. Slides were incubated at 37° C., 5% CO2 incubator. Cells were re-fed every 4 days. Cell morphology was monitored by light microscopy. Immunofluorescence images were captured by Nikon A1-R confocal laser scanning microscope (Haifa University, Haifa, Israel).
# Laminin5 immunofluorescence staining: was performed as described by Barkan et al., [Cancer Research (2008)]. Briefly, cells cultured in 8 well chamber glass slides in 3D BME, as described above. The cultured cells were fixed and permeabalized for 5 minutes with 4% Paraformaldehyde (PFA) containing 5% sucrose and 0.2% Triton X-100, and re-fixed for an additional 25 minutes with 4% PFA containing 5% sucrose. The cells were washed for 10 minutes with PBS and an additional 10 minutes with PBS containing 0.05% Tween 20 (Sigma). Fixed cells were blocked with 3% BSA in PBS for 1 hour and incubated overnight at 4° C. with primary antibody (Rabbit polyclonal antibody to Laminin-5 (1:200)). The cells were washed three times with PBS for 15 minutes each, and incubated for 1 hour with […] conjugated to Alexa Fluor®647 (Invitrogen), washed as above and mounted with VECTASHIELD mounting medium with 4′,6-diamidino-2-phenylindole (DAPI). For F-actin staining cells were incubated over night with Alexa-Fluor®488 Phalloidin (1:40) (Molecular Probes) washed three times with PBS for 15 minutes each, and mounted with VECTASHIELD mounting medium with DAPI. The slides were imaged using Nikon A1-R confocal laser scanning microscope (Haifa University, Haifa, Israel). […]
# [14] = test system: XIAP; test: Western blot, M2 cells transfected with 6myc-ARTS, caspase inhibition; format: cell-based, human
# Description: (§7) The cells were transfected with either 6-MycTag-ARTS in pCS2 or sport-ARTS in pCMV plasmid, that was produced in Sarit Larisch lab as described previously (Larisch & Yi […]). For the transfection the Turbofect (Fermentas) was used with concentration of 0.1 μg/l DNA for 6-MycTag-ARTS and sport-ARTS plasmid.
# as §1
# (§8) The inventors next examined whether caspases mediate the cleavage of the N′-terminal part of ARTS. To this end, the inventors transfected M2 cells with 6myc-ARTS and cells were either untreated or treated with a pan inhibitor of all caspases, Q-VD. […] In contrast, no change in XIAP levels was shown (FIG. 7D).
# [15] = test system: Bcl-2; test: as above; format: cell-based, human
# Description: as §7, §1, §8
# [16] = test system: 6myc-ARTS; test: as above; format: cell-based, human
# Description: as §7, §1, §8
# [17] = 30 μM A4 + 20 μM MG-132, 1 hour
# [18] = 30 μM A4 + 20 μM MG-132, 2 hour
smiles,measurement,setting,value
"COC(=O)c1[nH]c2ccc(Cl)cc2c1NC(=O)CN1CCN(Cc2ccccc2)CC1 [A4, methyl 5-chloro-3-[[2-[4-(phenylmethyl)piperazin-1-yl]acetyl]amino]-1H-indole-2-carboxylate]",levels of Bcl-2,[1],clearly reduced
same,effect on cCaspase,[2],No effect
same,effect on c-PARP,[3],No effect
same,Bcl-2 levels with proteasome inhibitor,[4]; [17],restored
same,Bcl-2 levels,"[4]; 30 μM A4, 1 hour",decrease
same,XIAP levels with proteasome inhibitor,[5]; [18],restored
same,XIAP levels,"[5]; 30 μM A4, 2 hour",specific decrease
same,levels of XIAP,[6],clearly reduced
same,Bcl-2 levels with proteasome inhibitor,[7]; [18],restored
same,Bcl-2 levels,"[7]; 30 μM A4, 2 hour",decrease
same,effect of combination with BH3 mimetic,[8],synergetic effect
same,apoptotic cells,[9],only low amount of apoptotic cells
same,cell proliferation,[9],decrease in cell proliferation
same,Kd,[10],34.6 ± 2.48 µM
same,XIAP levels with proteasome inhibitor,[11]; [17],restored
same,XIAP levels,"[11]; 30 μM A4, 1 hour",specific decrease
same,Kd,[12],46.1 ± 3.65 µM
same,"apicobasal polarization (GM130, Laminin 5 staining)","[13]; 40 μM, 7 days",initiation of apical staining of GM130 and basal staining of Laminin 5
same,organoid phenotype,"[13]; 40 uM, 14 days",conversion thereof to a normal-like phenotype
same,polarization and lumen formation,"[13]; 40 uM, 14 days",apicobasal polarization of M2 organoids followed by luminal formation
CC(C)[C@H](NC(=O)c1ccc2ccccc2n1)C(=O)N[C@@H](CC(=O)O)C(=O)COc1c(F)cccc1F [Q-VD],XIAP levels,[14],no change
same,Bcl-2 levels,[15],significantly increased
same,cleaved 6-myc ARTS,[16],decrease
same,uncleaved 6myc-ARTS,[16],increase
